Patent US12509448B2, “Salts of indoleamine 2,3-dioxygenase inhibitors” (INVENTISBIO CO., LTD., priority 2019, dated 2025)
Values after ≈ are worked out from the molar mass of the structure shown. “Also recorded” adds a separate entry of the source. Structures can show the parent of a compound that is named as a salt.

Experiments:
[1] = tested on: human hepatocyte; details: compared to INCB-24360 and others of WO2014150677 and WO2014150646; cited from earlier work
[2] = Solid stability test at 40° C./75% RH (HPLC, XRPD); assay type: physicochemical; details: for physical and chemical stability (XRPD and HPLC): 40° C./75% RH during testing period (9 days; HCl salt 7 days); for Purity (% Area) Initilal: solid stability test, 0 days
Procedure: (§1) HPLC ANALYSIS: a representative HPLC method is shown below, which can be used, for example, to analyze the purity, solubility, and stability of the salts herein.
Stability test: About 15 mg of Compound 1 (Form II), and K salt (Form III) were weighed into vials, and put at the condition of 40° C./75% RH for 9 days. At 0 and 9 days, the solid sample was dissolved using methanol/water (1/1) to make a solution with a concentration of 0.2 mg/mL. Sample solutions were analyzed by HPLC and solid samples were examined by XRPD.
About 15 mg of Compound 1 HCl salt (Form I) was weighed into vials, and put at the condition of 40° C./75% RH for 7 days. At 0 and 7 days, the solid sample was dissolved using methanol/water (1/1) to make a solution with the concentration of 0.2 mg/mL. The sample solution was analyzed by HPLC and solid sample was analyzed by XRPD.
K salt and Compound 1 was stored at 40° C./75% RH for 9 days, while HCl salt was stored for 7 days.

[3] = Solubility test in pH 1.2, 6.8 and 7.4 buffers (HPLC, pH of filtrate, XRPD of remaining solid); assay type: physicochemical; details: for remaining solid by XRPD: pH 1.2 buffer solution; for change of pH of the buffer solutions: HCl salt: pH 6.8 and 7.4 buffer solutions, K salt: buffers; for solubility compared with Compound 1: buffer solutions
Procedure: as §1
Solubility test: About 15-20 mg of Compound 1 (Form II), K salt (Form III) and HCl salt (Form I) were weighed into vials, and then added 1.5 mL of pH 1.2, pH 6.8 or pH 7.4 buffer to make saturated solutions.
All suspensions were kept shaking with 200 rpm at room temperature for up to 24 hours. At 30 min and 24 hours, the sample solution was filtered and analyzed by HPLC to determine the solubility. The pH of filtrates was also measured. At 24 hours, remaining solids were collected and determined by XRPD.
First, the solubility of Compound 1, HCl salt and K salt was tested in pH 1.2, 6.8 and 7.4 buffer solutions at 25° C. for 30 min and 24 hours. The solubility data and pH value of filtrate were listed in Table 6 and Table 7, respectively.
Additional solubility of Compound 1 and the HCl salt was tested in pH 6.8 and 7.4 for 30 min and 2 hours.

[4] = Dynamic moisture sorption analysis (DVS); assay type: physicochemical; details: for moisture adsorbed in DVS test: at 80% RH
Procedure: Dynamic moisture sorption analysis (DVS): DVS was determined using IGAsorp (Hiden Isochema, UK). The sample was tested at a targeted RH of 10 to 90% full cycle in step mode. The analysis was performed in 10% RH increments.

[5] = Stability of HCl salt Form I in water and in solvent; assay type: physicochemical
[6] = Grinding of Form I (XRPD); assay type: physicochemical; details: grinded for 2 min and 5 min
Procedure: Form I of the HCl salt was grinded for 2 min and 5 min.

[7] = Physical stability of Form I under heat and high humidity (XRPD); assay type: physicochemical; details: for crystalline form by XRPD after storage at high humidity: 25° C./92.5% RH for 10 days; for crystalline form by XRPD after storage under heat: 60° C. for 10 days
Procedure: Samples of HCl salt Form I was put into the condition of 92.5% RH or 60° C. for 10 days. Then the sample was analyzed by XRPD. […] XRPD patterns were shown in FIG. 1C (92.5% RH for 10 days) and FIG. 1D (60° C. for 10 days).

[8] = additional test (Table 8), pH 6.8 buffer
[9] = additional test (Table 8), pH 6.8 buffer, 2 hours
[10] = additional test (Table 8), pH 7.4 buffer
[11] = additional test (Table 8), pH 7.4 buffer, 2 hours
[12] = pH 1.2 buffer, 24 hours, 25° C.
[13] = pH 6.8 buffer, 24 hours, 25° C.
[14] = pH 7.4 buffer, 24 hours, 25° C.

Row | physical and chemical stability (XRPD and HPLC) [2] | Purity (% Area) Initilal [2] | Purity (% Area) 9 days ([2]; solid, 40° C./75% RH) | Solubility (mg/mL) 30 min [3, 8] | Solubility (mg/mL) 2 hours [3, 9] | Solubility (mg/mL) 30 min [3, 10] | Solubility (mg/mL) 2 hours [3, 11] | remaining solid by XRPD ([3]; 24 hours) | pH value of filtrate 30 min ([3]; pH 1.2 buffer) | Solubility (mg/mL) 30 min ([3]; pH 1.2 buffer, 25° C.) | pH value of filtrate 24 hours ([3]; pH 1.2 buffer, 24 hours) | pH value of filtrate 30 min ([3]; pH 6.8 buffer) | Solubility (mg/mL) 30 min ([3]; pH 6.8 buffer, 25° C.) | pH value of filtrate 24 hours ([3]; pH 6.8 buffer, 24 hours) | Solubility (mg/mL) 24 hours [3, 13] | pH value of filtrate 30 min ([3]; pH 7.4 buffer) | Solubility (mg/mL) 30 min ([3]; pH 7.4 buffer, 25° C.) | pH value of filtrate 24 hours ([3]; pH 7.4 buffer, 24 hours) | Solubility (mg/mL) 24 hours [3, 14] | XRPD pattern after DVS test [4] | SMILES | other results
1 | physically and chemically stable | 99.53 % Area | 99.53 % Area | 0.11 mg/mL (≈ 256 µM) | 0.12 mg/mL (≈ 279 µM) | 0.39 mg/mL (≈ 907 µM) | 0.44 mg/mL (≈ 1020 µM) | changed into HCl salt | 1.11 | 0.49 mg/mL (≈ 1140 µM) | 1.16 | 6.87 | 0.13 mg/mL (≈ 302 µM) | 6.81 | 0.04 mg/mL (≈ 93 µM) | 7.39 | 0.44 mg/mL (≈ 1020 µM) | 7.38 | 0.50 mg/mL (≈ 1160 µM) | not changed | CCN(c1ncc(C2(C(=O)O)CCC2)cc1Nc1ccc(Cl)cc1)C1CCOCC1 [Compound 1, 1-(5-((4-chlorophenyl)amino)-6-(ethyl(tetrahydro-2H-pyran-4-yl)amino)pyridin-3-yl)cyclobutane-1-carboxylic acid] | human hepatocyte clearance compared to other IDO inhibitors [1]: better human hepatocyte clearance; Solubility (mg/mL) 24 hours [3, 12]: 0.51 mg/mL (≈ 1190 µM); XRPD pattern after DVS test ([4]; listed as Form II): remained unchanged; moisture adsorbed in DVS test [4]: about 0.37%
2 | physically and chemically stable | 99.81 % Area |  | 1.62 mg/mL | 0.95 mg/mL | 3.41 mg/mL | 3.53 mg/mL |  | 1.10 | 0.58 mg/mL | 1.17 | 6.59 | 1.45 mg/mL | 3.34 | 0.02 mg/mL | 7.02 | 3.66 mg/mL | 6.06 | 0.49 mg/mL | not changed | CCN(c1ncc(C2(C(=O)O)CCC2)cc1Nc1ccc(Cl)cc1)C1CCOCC1 [HCl salt] | Purity (% Area) 7 days ([2]; solid, 40° C./75% RH, 7 days): 99.78 % Area; change of pH of the buffer solutions [3]: obviously decreased; solubility compared with Compound 1 [3]: higher solubility than Compound 1; also recorded: more soluble than Compound 1; solubility at 24 h ([3]; pH 1.2 buffer, 25 °C, pH 1.2, simulated gastric fluid, thermodynamic from solid, pH 1.2 buffer, 24 hours, 25° C., read-out: Solubility (mg/mL) 24 hours): 0.65 mg/mL; change of solubility with time ([3]; pH 6.8 and 7.4 buffers at 24 hours): obviously decreased; solid by XRPD ([3]; pH 6.8 and 7.4 buffers, 2 hours): part of HCl salt had been changed to be Compound 1; change of solubility with time ([3]; pH 6.8 buffer at 2 hours): decreased; change of solubility with time ([3]; pH 7.4 buffer, 2 hours versus 30 min): almost constant; degradation in solvent ([5]; in THE at 60° C.): can be degraded; dissociation in water ([5]; in water): can dissociate to Compound 1; XRPD pattern after DVS test ([4]; listed as Form I): remained unchanged; crystalline form by XRPD after grinding [6]: still Form I; crystalline form by XRPD after storage at high humidity [7]: unchanged; crystalline form by XRPD after storage at high humidity ([7]; listed as Form I): remained unchanged; crystalline form by XRPD after storage under heat [7]: unchanged; crystalline form by XRPD after storage under heat ([7]; listed as Form I): remained unchanged
3 | physically and chemically stable | 99.80 % Area | 99.79 % Area |  |  |  |  | changed into HCl salt | 1.18 | 9.52 mg/mL | 1.23 | 6.84 | 2.55 mg/mL | 7.46 | 0.55 mg/mL | 7.62 | 6.38 mg/mL | 8.02 | 2.25 mg/mL |  | CCN(c1ncc(C2(C(=O)O)CCC2)cc1Nc1ccc(Cl)cc1)C1CCOCC1 [K salt] | change of pH of the buffer solutions [3]: increased; solubility compared with Compound 1 [3]: much higher; also recorded: higher solubility than Compound 1; solubility compared with Compound 1 ([3]; listed as potassium salt): more soluble than Compound 1; Solubility (mg/mL) 24 hours [3, 12]: 0.71 mg/mL; XRPD pattern after DVS test ([4]; listed as potassium salt): not changed; moisture adsorbed in DVS test ([4]; listed as potassium salt): 1.32%
4 |  |  |  |  |  |  |  |  |  |  |  |  |  |  |  |  |  |  |  | changed | CCN(c1ncc(C2(C(=O)O)CCC2)cc1Nc1ccc(Cl)cc1)C1CCOCC1 [Na salt] | XRPD pattern after DVS test ([4]; listed as Form IV): changed into a different form; moisture adsorbed in DVS test [4]: 30.84%; moisture adsorbed in DVS test ([4]; listed as sodium salt): about 30%
